From paper PMC10386950 (Clinical Pharmacokinetics, 2023)

Test system: UDP-glucuronosyltransferases (UGTs)
Assay: Metabolic ratio
Type: in vivo, human
Details: Child C patients

## OCc1ncc2n1-c1ccc(Cl)cc1C(c1ccccc1F)=NC2 [1′-Hydroxymidazolam]
  Decrease of the MR for glucuronide formation: approximately 80%
